± gives the standard deviation of the averaged measurements.
Tests used:
VINORELBINE = compound: CCC1=C[C@@H]2CN(C1)Cc1c([nH]c3ccccc13)[C@@](C(=O)OC)(c1cc3c(cc1OC)N(C)[C@H]1[C@@](O)(C(=O)OC)[C@H](OC(C)=O)[C@]4(CC)C=CCN5CC[C@]31[C@@H]54)C2 [VINORELBINE]; assay: surviving fraction relative to DMSO-only wells; higher = less growth inhibition; settings: exposure time: 5 days
Method in brief: (§1)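 In 384-well plates, 250–500 log-phase tumour cells per well were given 24 hours before five days of continuous exposure to inhibitors at 0.5, 1, 5, 10, 50, 100, 500 and 1000 nM. Surviving fraction is luminescence from CellTiter-Glo, normalised to the median of wells containing DMSO alone. Reading took place after 10 minutes at room temperature.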

ETOPOSIDE = compound: COc1cc([C@@H]2c3cc4c(cc3[C@@H](O[C@@H]3O[C@@H]5CO[C@@H](C)O[C@H]5[C@H](O)[C@H]3O)[C@H]3COC(=O)[C@H]23)OCO4)cc(OC)c1O [ETOPOSIDE]; assay: as above; settings: exposure time: 5 days
Method in brief: as §1

Test System	surviving fraction (VINORELBINE; 0.5 nM)	surviving fraction (VINORELBINE; 1 nM)	surviving fraction (VINORELBINE; 5 nM)	surviving fraction (VINORELBINE; 10 nM)	surviving fraction (VINORELBINE; 50 nM)	surviving fraction (VINORELBINE; 100 nM)	surviving fraction (VINORELBINE; 500 nM)	surviving fraction (VINORELBINE; 1000 nM)	surviving fraction (ETOPOSIDE; 0.5 nM)	surviving fraction (ETOPOSIDE; 1 nM)	surviving fraction (ETOPOSIDE; 5 nM)	surviving fraction (ETOPOSIDE; 10 nM)	surviving fraction (ETOPOSIDE; 50 nM)	surviving fraction (ETOPOSIDE; 100 nM)	surviving fraction (ETOPOSIDE; 500 nM)	surviving fraction (ETOPOSIDE; 1000 nM)
SYO1 SYNOVIAL	1.03 ± 0.021	1 ± 0.027	0.818 ± 0.056	0.429 ± 0.062	0.114 ± 0.011	0.0666 ± 0.0041	0.052 ± 0.0061	0.0546 ± 0.005	0.994 ± 0.042	0.997 ± 0.059	0.975 ± 0.027	0.933 ± 0.023	0.7 ± 0.044	0.505 ± 0.051	0.106 ± 0.024	0.0784 ± 0.014
BT20 BREAST	1.16 ± 0.21	0.875 ± 0.22	0.973 ± 0.076	0.709 ± 0.18	0.0683 ± 0.025	0.055 ± 0.019	0.106 ± 0.029	0.09 ± 0.03	1.13 ± 0.073	1.17 ± 0.089	0.936 ± 0.17	1.04 ± 0.13	0.995 ± 0.098	0.919 ± 0.14	0.454 ± 0.11	0.211 ± 0.052
SG27 HEADNECK	1.17 ± 0.16	1.09 ± 0.096	1.13 ± 0.12	1.08 ± 0.15	1.03 ± 0.1	1.15 ± 0.018	1.26 ± 0.08	1.33 ± 0.27	1.12 ± 0.081	1.05 ± 0.11	0.975 ± 0.12	1.05 ± 0.14	1.08 ± 0.15	1.04 ± 0.037	1.09 ± 0.14	0.985 ± 0.14
22RV1 PROSTATE	1.04 ± 0.039	1.01 ± 0.057	0.916 ± 0.13	0.655 ± 0.12	0.12 ± 0.028	0.0623 ± 0.0038	0.0587 ± 0.012	0.06367 ± 0.00058	1.03 ± 0.084	1 ± 0.083	0.928 ± 0.059	0.939 ± 0.023	0.922 ± 0.046	0.747 ± 0.047	0.42 ± 0.034	0.345 ± 0.03
JIMT1 BREAST	0.955 ± 0.036	0.9598 ± 0.0091	0.512 ± 0.025	0.304 ± 0.03	0.127 ± 0.011	0.117 ± 0.0056	0.113 ± 0.0063	0.11 ± 0.0053	0.988 ± 0.02	1.01 ± 0.026	1.03 ± 0.032	1.03 ± 0.015	1.06 ± 0.022	1.07 ± 0.026	0.893 ± 0.028	0.694 ± 0.028
SG28 HEADNECK	1.17 ± 0.22	1.04 ± 0.061	0.998 ± 0.099	0.861 ± 0.13	0.589 ± 0.087	0.538 ± 0.11	0.521 ± 0.016	0.542 ± 0.071	1.18 ± 0.046	1.19 ± 0.063	1.13 ± 0.075	1.15 ± 0.044	1.07 ± 0.2	1.09 ± 0.093	1.05 ± 0.029	0.969 ± 0.11
MDAMB157 BREAST	0.915 ± 0.076	0.872 ± 0.076	0.748 ± 0.084	0.465 ± 0.045	0.11 ± 0.026	0.0867 ± 0.013	0.0783 ± 0.015	0.12 ± 0.025	0.927 ± 0.12	0.938 ± 0.044	1.07 ± 0.044	0.99 ± 0.055	0.895 ± 0.038	0.874 ± 0.1	0.201 ± 0.046	0.221 ± 0.053
HMT3552 BREAST	1.05	1.05	0.59	0.209	0.104	0.117	0.253	0.221	1.05	1.05	1.04	0.998	1.14	1.03	0.347	0.22
T47D BREAST	1.03 ± 0.026	1.01 ± 0.03	0.735 ± 0.026	0.609 ± 0.023	0.356 ± 0.0061	0.341 ± 0.016	0.369 ± 0.025	0.373 ± 0.013	1.06 ± 0.042	1.04 ± 0.03	1.07 ± 0.09	1.02 ± 0.021	1.03 ± 0.047	0.96 ± 0.068	0.525 ± 0.036	0.46 ± 0.023
SCC47 HEADNECK	1.09 ± 0.13	1.06 ± 0.013	0.967 ± 0.055	0.693 ± 0.044	0.231 ± 0.023	0.1977 ± 0.0011	0.302 ± 0.022	0.289 ± 0.0068	1.04 ± 0.11	1.05 ± 0.039	1.02 ± 0.025	1.08 ± 0.079	1.11 ± 0.071	1.06 ± 0.084	0.799 ± 0.07	0.575 ± 0.027

From the supplement of paper PMC6045584
